Data set [1] deals with A. baumannii ATCC BAA-1605. Description: MIC determination. The data set is classed as cell-based. To be noted: Acinetobacter baumannii, ATCCBAA1605.
The test system of a further data set is E. faecalis EFA-1299. Description: MIC determination. The data set is classed as cell-based. To be noted: Enterococcus faecalis, EFA1299.
The test system of data set [2] is S. aureus ATCC 29213 (MSSA). Description: MIC determination. The data set is classed as cell-based. To be noted: Staphylococcus aureus.
The test system of data set [3] is E. faecium EFA-0221 (VRE). In words: MIC determination. The data set is classed as cell-based. To be noted: Enterococcus faecium.
A further data set has as its system M. abscessus-GDI. Description: MIC determination (Microplate Alamar Blue Assay). The data set is classed as cell-based, Mycobacterium abscessus. The settings on record: Mycobacteroides abscessus, 72 h. On the technique in general: The colour change of resazurin is a common sign of viable cells or microbes.
A short description of another data set: Pharmacokinetics in rats. To be noted: Rat.
A further data set has as its system H. influenzae ATCC 49247. In words: MIC determination. The class given is cell-based. The settings on record: Haemophilus influenzae, ATCC49247.
For another data set, the system named is E. coli ATCC 25922. In words: MIC determination. The settings on record: Escherichia coli, ATCC25922. The data set is classed as cell-based.
The conditions of data set [4]: male, Sprague-Dawley, rat, in vivo, iv, 3 mg/kg.
Another data set concerns M. abscessus-C28. Description: MIC determination (Microplate Alamar Blue Assay). The class given is cell-based, Mycobacterium abscessus. To be noted: Mycobacteroides abscessus, 72 h.
For data set [5], the system named is S. aureus SAU-9922 (MRSA). Description: MIC determination. The data set is classed as cell-based. To be noted: Staphylococcus aureus.
Data set [6] concerns M. bovis BCG (Pasteur 1173P2). In words: microbe, parasite or virus in culture. The data set is classed as cell-based. To be noted: Mycobacterium tuberculosis variant bovis BCG, 168 h.
Data set [7] concerns S. aureus SAU-0167 (MRSA). In words: MIC determination. The class given is cell-based. To be noted: Staphylococcus aureus.
The test system of the next data set is M. smegmatis mc^2155. In words: MIC determination (Microplate Alamar Blue Assay). The class given is cell-based. The settings on record: Mycolicibacterium smegmatis; M. smegmatis mc^2155, 72 h.

≈ marks a conversion by molar mass, not a printed value.

Broadly, the logP is the decadic logarithm of the partition coefficient of the neutral form, usually between octanol and water. A high value points to a more lipophilic compound. Usually MRT stands for the average time that molecules of a dose stay in the body. On to `C=C[C@]1(C)C[C@@H](OC(=O)COc2ccc3c(c2F)B(O)OC3)[C@]2(C)[C@H](C)CC[C@]3(CCC(=O)[C@H]32)[C@@H](C)[C@@H]1O` [AN11251], for which the MIC in [1] is 32 µg/mL (≈ 60.6 µM); with E. faecalis EFA-1299 it was 4 µg/mL (≈ 7.57 µM); in data set [2] it was below 0.039 µg/mL; in data set [3], 0.125 µg/mL (≈ 0.237 µM); against M. abscessus-GDI, above 20 µg/mL; against H. influenzae ATCC 49247, 2 µg/mL (≈ 3.78 µM). The MIC against E. coli ATCC 25922 is above 32 µg/mL; in the data set with M. abscessus-C28, above 20 µg/mL; in data set [5], 0.063 µg/mL (≈ 0.119 µM); in data set [6], 2.5 µg/mL (≈ 4.73 µM); in data set [7] it was 0.063 µg/mL (≈ 0.119 µM); against M. smegmatis mc^2155, above 20 µg/mL. Further, the logP in “physchem” was 4.5. The “time until eliminated (plasma concentration-time curve)” value in the data set “Pharmacokinetics in rats” is given as at most 8 h. The mean residence time MRT in data set [4] came out at 1.04 h.
